Experimental data as given in patent US9808003B2, “Herbicidally active 2-(substituted-phenyl)-cyclopentane-1,3-dione compounds and derivatives thereof” (Syngenta Limited, priority 2013, dated 2017).

Legend:
Assay in all cases: Test 1A glasshouse assay, post-emergence herbicidal activity
Format in all cases: in vivo
Lolium perenne (LOLPE) = details: application rate 250 g/ha, 13 days after application, visual (100%=total damage; 0%=no damage); for pest or weed control at 250 g/ha: Lolium perenne, 312 h, read-out: Post-emergence Herbicidal Activity (% Phytotoxicity) LOLPE
Method: (§1) Seeds of a variety of test species were sown in standard soil in pots. After cultivation for one day (pre-emergence) or after 8 days cultivation (post-emergence) under controlled conditions in a glasshouse (at 24/16° C., day/night; 14 hours light; 65% humidity), the plants were sprayed with an aqueous spray solution derived from the formulation of the technical active ingredient in acetone/water (50:50) solution containing 0.5% Tween 20 (polyoxyethelyene sorbitan monolaurate, CAS RN 9005-64-5). The test plants were then grown under controlled conditions in a glasshouse (at 24/16° C., day/night; 14 hours light; 65% humidity) and watered twice daily. 13 days after application of the test herbicide, for pre- and post-emergence, the test was evaluated visually for percentage phytotoxicity to the plant (where 100%=total damage to plant; 0%=no damage to plant).
(§2) Lolium perenne (LOLPE), Alopecurus myosuroides (ALOMY), Echinochloa crus-galli (ECHCG), and Avena fatua (AVEFA); these are all grassy monocotyledonous weeds.

Avena fatua (AVEFA) = details: application rate 250 g/ha, 13 days after application, visual (100%=total damage; 0%=no damage); for pest or weed control at 250 g/ha: Avena fatua, 312 h, read-out: Post-emergence Herbicidal Activity (% Phytotoxicity) AVEFA
Method: as §1, §2

[1] = system: Alopecurus myosuroides (ALOMY); details: application rate 250 g/ha, 13 days after application, visual (100%=total damage; 0%=no damage); for pest or weed control at 250 g/ha: Alopecurus myosuroides, 312 h, read-out: Post-emergence Herbicidal Activity (% Phytotoxicity) ALOMY
Method: as §1, §2

[2] = system: Echinochloa crus-galli (ECHCG); details: application rate 250 g/ha, 13 days after application, visual (100%=total damage; 0%=no damage); for pest or weed control at 250 g/ha: Echinochloa crus-galli, 312 h, read-out: Post-emergence Herbicidal Activity (% Phytotoxicity) ECHCG
Method: as §1, §2

Structure (SMILES) | pest or weed control at 250 g/ha (Lolium perenne (LOLPE)) | pest or weed control at 250 g/ha (Avena fatua (AVEFA)) | pest or weed control at 250 g/ha [1] | pest or weed control at 250 g/ha [2] | Post-emergence Herbicidal Activity (% Phytotoxicity) LOLPE (Lolium perenne (LOLPE)) | Post-emergence Herbicidal Activity (% Phytotoxicity) AVEFA (Avena fatua (AVEFA)) | Post-emergence Herbicidal Activity (% Phytotoxicity) ALOMY [1] | Post-emergence Herbicidal Activity (% Phytotoxicity) ECHCG [2]
Cc1cc(C)c(C2C(=O)CC(CCNC(=O)c3cccc(Br)n3)C2=O)c(C)c1 (stereo not shown) [Compound A48] | 100% | 90% | 100% | 100% |  |  |  | 
Cc1cc(C)c(C2C(=O)CC(CCNC(=O)C(F)c3ccccc3)C2=O)c(C)c1 (stereo not shown) [Compound A50] | 100% | 70% | 20% | 70% |  |  |  | 
Cc1cc(C)c(C2C(=O)CC(CCNC(=O)c3nonc3C)C2=O)c(C)c1 (stereo not shown) [Compound A51] | 100% | 90% | 100% | 90% |  |  |  | 
Cc1cc(C)c(C2C(=O)CC(CCNC(=O)c3cc4ccccc4n3C)C2=O)c(C)c1 (stereo not shown) [Compound A52] | 90% | 70% | 70% | 100% |  |  |  | 
Cc1cc(C)c(C2C(=O)CC(CCNC(=O)c3cscn3)C2=O)c(C)c1 (stereo not shown) [Compound A53] | 100% | 90% | 80% | 100% |  |  |  | 
Cc1cc(C)c(C2C(=O)CC(CCNC(=O)c3nn(C)nc3C)C2=O)c(C)c1 (stereo not shown) [Compound A54] | 100% | 100% | 100% | 60% |  |  |  | 
Cc1cc(C)c(C2C(=O)CC(CCNC(=O)c3cnccn3)C2=O)c(C)c1 (stereo not shown) [Compound A55] | 90% | 60% | 80% | 90% |  |  |  | 
Cc1cc(C)c(C2C(=O)CC(CCNC(=O)c3cnc(C)cn3)C2=O)c(C)c1 (stereo not shown) [Compound A56] | 100% | 90% | 100% | 90% |  |  |  | 
Cc1cc(C)c(C2C(=O)CC(CCNC(=O)c3ccc(C#N)cn3)C2=O)c(C)c1 (stereo not shown) [Compound A57A] |  |  |  |  | 90% | 90% | 100% | 90%
Cc1cc(C)c(C2C(=O)CC(CCNC(=O)c3ccc(C#N)cn3)C2=O)c(C)c1 (stereo not shown) [Compound A57] | 100% | 100% | 100% | 100% |  |  |  | 
Cc1cc(C)c(C2C(=O)CC(CCNC(=O)c3cccn3C)C2=O)c(C)c1 (stereo not shown) [Compound A58] | 80% | 30% | 50% | 50% |  |  |  | 
Cc1cc(C)c(C2C(=O)CC(CCNC(=O)c3nccn3C)C2=O)c(C)c1 (stereo not shown) [Compound A59] | 80% | 60% | 60% | 30% |  |  |  | 
Cc1cc(C)c(C2C(=O)CC(CCNC(=O)c3cnsn3)C2=O)c(C)c1 (stereo not shown) [Compound A60] | 80% | 90% | 80% | 70% |  |  |  | 
Cc1cc(C)c(C2C(=O)CC(CCNC(=O)c3cc(C)on3)C2=O)c(C)c1 (stereo not shown) [Compound A61] | 100% | 60% | 90% | 70% |  |  |  | 
Cc1cc(C)c(C2C(=O)CC(CCNC(=O)c3ncccc3C)C2=O)c(C)c1 (stereo not shown) [Compound A62] | 100% | 80% | 100% | 80% |  |  |  | 
Cc1cc(C)c(C2C(=O)CC(CCNC(=O)c3nccc4ccccc34)C2=O)c(C)c1 (stereo not shown) [Compound A63] | 100% | 90% | 90% | 90% |  |  |  | 
Cc1cc(C)c(C2C(=O)CC(CCNC(=O)c3cccc(C)n3)C2=O)c(C)c1 (stereo not shown) [Compound A64] | 80% | 80% | 90% | 60% |  |  |  | 

Structure (SMILES) | pest or weed control at 250 g/ha (Lolium perenne (LOLPE)) | pest or weed control at 250 g/ha (Avena fatua (AVEFA)) | pest or weed control at 250 g/ha [1] | pest or weed control at 250 g/ha [2] | Post-emergence Herbicidal Activity (% Phytotoxicity) LOLPE (Lolium perenne (LOLPE)) | Post-emergence Herbicidal Activity (% Phytotoxicity) AVEFA (Avena fatua (AVEFA)) | Post-emergence Herbicidal Activity (% Phytotoxicity) ALOMY [1] | Post-emergence Herbicidal Activity (% Phytotoxicity) ECHCG [2]
COc1cc(Cl)nc(C(=O)NCCC2CC(=O)C(c3c(C)cc(C)cc3C)C2=O)c1 (stereo not shown) [Compound A65] | 80% | 70% | 100% | 80% |  |  |  | 
Cc1cc(C)c(C2C(=O)CC(CCNC(=O)c3cccc(N)n3)C2=O)c(C)c1 (stereo not shown) [Compound A66] | 60% | 40% | 80% | 70% |  |  |  | 
COc1cc(OC)nc(C(=O)NCCC2CC(=O)C(c3c(C)cc(C)cc3C)C2=O)n1 (stereo not shown) [Compound A69] | 60% | 70% | 50% | 30% |  |  |  | 
Cc1cc(C)c(C2C(=O)CC(CCNC(=O)c3ncc(C)nc3N)C2=O)c(C)c1 (stereo not shown) [Compound A70] | 100% | 90% | 100% | 90% |  |  |  | 
Cc1cc(C)c(C2C(=O)CC(CCNC(=O)c3nc(C)oc3C(F)(F)F)C2=O)c(C)c1 (stereo not shown) [Compound A71] | 100% | 90% | 100% | 80% |  |  |  | 
Cc1cc(C)c(C2C(=O)CC(CCNC(=O)c3cc(C)nn3C)C2=O)c(C)c1 (stereo not shown) [Compound A72] | 90% | 90% | 90% | 70% |  |  |  | 
Cc1cc(C)c(C2C(=O)CC(CCNC(=O)c3csc(C)n3)C2=O)c(C)c1 (stereo not shown) [Compound A73] | 80% | 90% | 90% | 90% |  |  |  | 
Cc1cc(C)c(C2C(=O)CC(CCNC(=O)c3n[nH]c4ccccc34)C2=O)c(C)c1 (stereo not shown) [Compound A74] | 80% | 30% | 90% | 70% |  |  |  | 
Cc1cc(C)c(C2C(=O)CC(CCNC(=O)c3cc(C)n(C)n3)C2=O)c(C)c1 (stereo not shown) [Compound A75] | 90% | 90% | 90% | 90% |  |  |  | 
Cc1cc(C)c(C2C(=O)CC(CCNC(=O)c3c(C)nc4ccccn34)C2=O)c(C)c1 (stereo not shown) [Compound A76] | 60% | 90% | 70% | 80% |  |  |  | 
Cc1cc(C)c(C2C(=O)CC(CCNC(=O)c3nn(C)cc3C(F)(F)F)C2=O)c(C)c1 (stereo not shown) [Compound A77] | 90% | 90% | 70% | 90% |  |  |  | 
Cc1cc(C)c(C2C(=O)CC(CCNC(=O)c3nc(C)ncc3Br)C2=O)c(C)c1 (stereo not shown) [Compound A78] | 60% | 80% | 80% | 80% |  |  |  | 
Cc1cc(C)c(C2C(=O)CC(CCNC(=O)c3sc(C)nc3C)C2=O)c(C)c1 (stereo not shown) [Compound A79] | 70% | 80% | 80% | 70% |  |  |  | 
CCc1cc(Br)cc(C)c1C1C(=O)CC(CCNC(=O)c2ccccn2)C1=O (stereo not shown) [Compound A83] | 100% | 100% | 100% | 100% |  |  |  | 
CC#Cc1cc(C)c(C2C(=O)CC(CCNC(=O)c3ccccn3)C2=O)c(CC)c1 (stereo not shown) [Compound A84, N-[2-[3-(2-ethyl-6-methyl-4-prop-1-ynyl-phenyl)-2,4-dioxo-cyclopentyl]ethyl]pyridine-2-carboxamide] | 100% | 100% | 100% | 100% |  |  |  | 
C#Cc1cc(C)c(C2C(=O)CC(CCNC(=O)c3ccccn3)C2=O)c(CC)c1 (stereo not shown) [Compound A85, N-[2-[3-(2-ethyl-4-ethynyl-6-methyl-phenyl)-2,4-dioxo-cyclopentyl]ethyl]pyridine-2-carboxamide] | 100% | 100% | 90% | 100% |  |  |  | 
CCc1cc(-c2ccc(F)cc2)cc(C)c1C1C(=O)CC(CCNC(=O)c2ccccn2)C1=O (stereo not shown) [Compound A86, N-[2-[3-[2-ethyl-4-(4-fluorophenyl)-6-methyl-phenyl]-2,4-dioxo-cyclopentyl]ethyl]pyridine-2-carboxamide] | 100% | 100% | 100% | 100% |  |  |  | 
